≈ marks a conversion by molar mass, not a printed value.

One data set addresses Phosphodiesterase 1 (Homo sapiens, UniProt P54750+Q01064+Q14123). The experiment in a line: Inhibition of human Phosphodiesterase 1 purified from THP-1 cells. It is filed as cell-free.
In data set [1] the target is cGMP-specific 3',5'-cyclic phosphodiesterase (Homo sapiens, UniProt O76074). The data set is described as follows: Inhibition of human Phosphodiesterase 5 purified from MCF-7 cells. The class given is cell-free, MCF7.
The target of data set [2] is 3',5'-cyclic-AMP phosphodiesterase 4D (Homo sapiens, UniProt Q08499). The experiment in a line: Inhibition of human Phosphodiesterase 4D3 expressed in baculovirus infected Sf9 cells.
Data set [3] has as its target High affinity 3',5'-cyclic-AMP phosphodiesterase 7A (Homo sapiens, UniProt Q13946). The data set is described as follows: Inhibition of human Phosphodiesterase 7A1 expressed in baculovirus infected Sf9 cells.
Data set [4] concerns the target cGMP-inhibited 3',5'-cyclic phosphodiesterase 3A (Homo sapiens, UniProt Q14432). The data set is described as follows: Inhibition of human Phosphodiesterase 3A3 expressed in baculovirus infected Sf9 cells.
A short description of data set [5]: Solubility at 7.4 pH. It is filed as physicochemical. Particulars: pH 7.4.

Chain of High affinity 3',5'-cyclic-AMP phosphodiesterase 7A (Q13946 whole entry): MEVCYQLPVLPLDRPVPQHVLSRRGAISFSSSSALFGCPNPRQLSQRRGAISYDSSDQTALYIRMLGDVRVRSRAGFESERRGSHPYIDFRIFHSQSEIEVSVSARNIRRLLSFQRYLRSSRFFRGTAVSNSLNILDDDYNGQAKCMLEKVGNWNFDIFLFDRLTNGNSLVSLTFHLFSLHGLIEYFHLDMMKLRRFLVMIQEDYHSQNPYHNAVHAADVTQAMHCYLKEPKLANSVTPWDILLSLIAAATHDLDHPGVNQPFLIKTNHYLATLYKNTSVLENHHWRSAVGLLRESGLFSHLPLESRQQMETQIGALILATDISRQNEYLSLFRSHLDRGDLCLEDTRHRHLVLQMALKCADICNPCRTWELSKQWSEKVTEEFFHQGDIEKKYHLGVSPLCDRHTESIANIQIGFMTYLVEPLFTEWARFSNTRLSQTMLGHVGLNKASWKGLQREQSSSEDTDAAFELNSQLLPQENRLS
Chain of 3',5'-cyclic-AMP phosphodiesterase 4D (Q08499 whole entry): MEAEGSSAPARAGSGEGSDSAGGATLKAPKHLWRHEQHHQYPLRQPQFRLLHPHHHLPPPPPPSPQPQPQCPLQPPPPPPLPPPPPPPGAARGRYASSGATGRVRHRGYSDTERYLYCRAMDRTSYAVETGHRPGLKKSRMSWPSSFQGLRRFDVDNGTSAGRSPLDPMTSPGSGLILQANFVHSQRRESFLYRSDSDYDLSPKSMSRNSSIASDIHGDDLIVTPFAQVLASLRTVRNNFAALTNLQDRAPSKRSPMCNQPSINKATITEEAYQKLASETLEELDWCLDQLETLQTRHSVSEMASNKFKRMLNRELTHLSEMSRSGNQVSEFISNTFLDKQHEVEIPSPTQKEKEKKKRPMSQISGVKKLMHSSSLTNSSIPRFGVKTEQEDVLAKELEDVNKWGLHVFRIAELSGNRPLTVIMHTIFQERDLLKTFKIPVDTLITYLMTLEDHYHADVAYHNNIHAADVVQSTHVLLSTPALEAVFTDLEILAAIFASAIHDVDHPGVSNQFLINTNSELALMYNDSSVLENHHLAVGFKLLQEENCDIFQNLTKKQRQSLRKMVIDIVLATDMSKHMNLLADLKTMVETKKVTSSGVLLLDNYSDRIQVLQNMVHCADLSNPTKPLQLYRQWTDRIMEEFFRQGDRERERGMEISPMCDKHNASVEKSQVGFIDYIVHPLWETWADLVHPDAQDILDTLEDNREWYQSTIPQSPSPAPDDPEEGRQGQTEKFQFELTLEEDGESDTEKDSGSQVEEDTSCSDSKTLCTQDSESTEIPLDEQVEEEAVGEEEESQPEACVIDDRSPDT
Chain of cGMP-inhibited 3',5'-cyclic phosphodiesterase 3A (Q14432 whole entry): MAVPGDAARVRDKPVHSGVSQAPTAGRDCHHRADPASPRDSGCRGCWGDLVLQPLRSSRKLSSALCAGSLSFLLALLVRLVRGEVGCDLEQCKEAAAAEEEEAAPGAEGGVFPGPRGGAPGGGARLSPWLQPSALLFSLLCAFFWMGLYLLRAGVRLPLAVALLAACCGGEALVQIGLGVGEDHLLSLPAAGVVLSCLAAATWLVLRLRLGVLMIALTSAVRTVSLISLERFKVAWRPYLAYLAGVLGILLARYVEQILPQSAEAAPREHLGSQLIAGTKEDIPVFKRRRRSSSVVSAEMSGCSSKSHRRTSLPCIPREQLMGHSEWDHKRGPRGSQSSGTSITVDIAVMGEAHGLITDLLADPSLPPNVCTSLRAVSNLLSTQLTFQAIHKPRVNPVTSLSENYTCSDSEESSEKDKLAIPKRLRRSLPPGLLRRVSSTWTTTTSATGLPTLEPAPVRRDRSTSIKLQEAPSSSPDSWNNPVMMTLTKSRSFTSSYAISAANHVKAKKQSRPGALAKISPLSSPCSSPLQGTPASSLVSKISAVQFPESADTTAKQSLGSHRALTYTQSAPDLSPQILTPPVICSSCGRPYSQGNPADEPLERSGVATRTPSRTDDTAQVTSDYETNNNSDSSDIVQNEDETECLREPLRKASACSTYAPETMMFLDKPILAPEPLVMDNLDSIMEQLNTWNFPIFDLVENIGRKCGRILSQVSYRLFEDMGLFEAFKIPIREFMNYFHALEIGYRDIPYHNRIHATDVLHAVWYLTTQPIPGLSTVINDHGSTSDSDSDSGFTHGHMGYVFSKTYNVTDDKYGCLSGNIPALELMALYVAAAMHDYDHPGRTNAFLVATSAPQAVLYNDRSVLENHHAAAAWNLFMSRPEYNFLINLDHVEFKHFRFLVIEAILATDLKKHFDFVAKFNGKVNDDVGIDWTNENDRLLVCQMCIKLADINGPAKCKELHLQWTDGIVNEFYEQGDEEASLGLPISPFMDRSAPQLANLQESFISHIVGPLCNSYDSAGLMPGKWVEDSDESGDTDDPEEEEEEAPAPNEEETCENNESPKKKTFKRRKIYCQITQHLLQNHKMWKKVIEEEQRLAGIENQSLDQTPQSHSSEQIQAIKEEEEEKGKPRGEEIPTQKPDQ

Turning to `Cn1nc(-c2ccc(Cl)cc2)s/c1=N\c1cccc(C(=O)O)c1O`, the IC50 was found to be 9.28 µM against Phosphodiesterase 1; 5.18 µM in data set [1]; 14.2 µM in data set [2]; 260 nM in data set [3]; 9.83 µM in data set [4].

`COC(=O)c1cccc(-c2nn(C)/c(=N/C3CCCCC3)s2)c1`: the IC50 is 19 µM in data set [2] and 140 nM in data set [3].

Consider `Cn1nc(-c2ccc(Cl)cc2)s/c1=N\c1ccc(F)c(C(=O)O)c1`, for which the IC50 worked out at 21.58 µM against Phosphodiesterase 1; 17.9 µM in data set [1]; 39.7 µM in data set [2]; 160 nM in data set [3]; 17 µM in data set [4].

On to `Cn1nc(-c2ccc(Cl)cc2)s/c1=N\C1CCC1`, for which the IC50 turned out to be 6.3 µM in data set [2] and 4800 nM in data set [3].

On to `Cn1nc(-c2ccc(Cl)cc2)s/c1=N\C1CCCC1`, for which the IC50 in data set [2] came out at 81.5 µM; in data set [3], 3080 nM.

In the case of `CN(C)CCN(C)C(=O)c1ccc(-c2nn(C)/c(=N/C3CCCCC3)s2)cc1`, the IC50 is greater than 101 µM in data set [2] and 470 nM in data set [3].

As to `Cn1nc(-c2ccc(S(N)(=O)=O)cc2)s/c1=N\C1CCCCC1`, the IC50 is 11 µM in data set [2] and 150 nM in data set [3].

In the case of `Cn1nc(-c2ccc(Cl)cc2)s/c1=N\c1ccc(C(=O)O)cc1`, the IC50 on Phosphodiesterase 1 was 28.93 µM; in data set [1], 40.3 µM; in data set [2], greater than 101 µM; in data set [3], 4600 nM; in data set [4] it was 30.7 µM.

`Cn1nc(-c2ccc(Cl)cc2)s/c1=N\C1CC2CCC1C2` (stereo unspecified): the IC50 in data set [2] is greater than 101 µM.

As to `CCC/N=c1\sc(-c2ccc(Cl)cc2)nn1C`, the IC50 was 26 µM in data set [2] and 7700 nM in data set [3].

Turning to `Cn1nc(-c2ccc(C(N)=O)c(O)c2)s/c1=N\C1CCCCC1`, the IC50 in data set [2] is 19.3 µM; in data set [3], 120 nM.

As for `Cn1nc(-c2cccc(C(N)=O)c2)s/c1=N\C1CCCCC1`, the values for the IC50 in data set [2] and in data set [3] were 19.3 µM and 90 nM, respectively.

Regarding `Cn1nc(-c2ccc(Cl)cc2)s/c1=N\c1ccc(O)c(C(=O)O)c1`, the IC50 was found to be 5.23 µM against Phosphodiesterase 1; 3.97 µM in data set [1]; 7.05 µM in data set [2]; 150 nM in data set [3]; 5.58 µM in data set [4].

Compound `Cn1nc(-c2cccc(S(N)(=O)=O)c2)s/c1=N\C1CCCCC1` displayed a concentration for half-maximal inhibition (IC50) in data set [2] of 15 µM.

Consider `Cc1cc(-c2nn(C)/c(=N/C3CCCCC3)s2)ccc1C(N)=O`, for which the IC50 is 44.7 µM in data set [2] and 930 nM in data set [3].

For `Cn1nc(-c2ccc(C(=O)NCCN3CCOCC3)cc2)s/c1=N\C1CCCCC1`, the IC50 in data set [2] is 8.77 µM; in data set [3], 30 nM. In data set [5], the solubility is 17 µg/mL (≈ 39.6 µM).

In the case of `Cn1nc(-c2ccc(Cl)cc2)s/c1=N\C1CCCCC1`, the figures for the IC50 in data set [2] and in data set [3] were 57 µM and 1500 nM, respectively.

Take `Cn1nc(-c2cccc(Cl)c2)s/c1=N\C1CCCCC1`: in data set [2], the IC50 is greater than 101 µM.

With `COC(=O)c1ccccc1-c1nn(C)/c(=N/C2CCCCC2)s1`, the IC50 came out at 30 µM in data set [2] and 7500 nM in data set [3].

For `Cn1nc(-c2ccc(Cl)cc2)s/c1=N\c1ccccc1`, the IC50 in data set [2] turned out to be 38 µM; in data set [3], 2950 nM.

With `CCNS(=O)(=O)c1cc(-c2nn(C)/c(=N/C3CCCCC3)s2)ccc1Cl`, the IC50 was 5.84 µM in data set [2] and 20 nM in data set [3].

With `Cn1nc(-c2ccc(Cl)cc2)s/c1=N\c1c(O)cccc1C(=O)O`, the IC50 at Phosphodiesterase 1 amounted to 28.84 µM; in data set [1] it was 18.8 µM; in data set [2], 58.2 µM; in data set [3], 1310 nM; in data set [4], 49.4 µM.

Turning to `Cn1nc(-c2ccc(Cl)cc2)s/c1=N\c1cccc(C(N)=O)c1`, the IC50 against Phosphodiesterase 1 was 7.83 µM; in data set [1], greater than 101 µM; in data set [2] it was 44.5 µM; in data set [3], 1630 nM; in data set [4], 2.65 µM.

`Cn1nc(-c2ccc(S(C)(=O)=O)cc2)s/c1=N\C1CCCCC1`: the figures for the IC50 in data set [2] and in data set [3] were 25 µM and 130 nM, respectively.

For `COc1cc(-c2nn(C)/c(=N/C3CCCCC3)s2)ccc1C(N)=O`, the IC50 in data set [2] was greater than 101 µM; in data set [3] it was 470 nM.

As for `Cn1nc(-c2ccc(Cl)cc2)s/c1=N\c1cccc(-c2nn[nH]n2)c1`, the IC50 at Phosphodiesterase 1 worked out at 3.34 µM; in data set [1], 7 µM; in data set [2], 4.26 µM; in data set [3], 80 nM; in data set [4], 1.71 µM.

On to `Cn1nc(-c2ccc(O)cc2)s/c1=N\C1CCCCC1`, for which, in data set [2], the IC50 turned out to be 12.2 µM.

As to `Cn1nc(-c2ccc(C(N)=O)cc2)s/c1=N\C1CCCCC1`, the IC50 in data set [2] amounted to 15.3 µM; in data set [3], 60 nM.

On to `Cn1nc(-c2ccc(Cl)cc2)s/c1=N\C1CN2CCC1C2` (stereo unspecified), for which the results for the IC50 in data set [2] and in data set [3] were 79 µM and 5900 nM, respectively.

`Cn1nc(-c2ccc(Cl)cc2)s/c1=N\c1ccccc1O`: the IC50 is greater than 101 µM on Phosphodiesterase 1; greater than 101 µM in data set [1]; greater than 101 µM in data set [2]; 5300 nM in data set [3]; greater than 101 µM in data set [4].

For `Cn1nc(-c2ccc(Cl)cc2)s/c1=N\c1cccc(O)c1`, the IC50 at Phosphodiesterase 1 was 9.81 µM; in data set [1], 10.9 µM; in data set [2], greater than 101 µM; in data set [3], 1800 nM; in data set [4] it was 6.13 µM.

For `Cn1nc(-c2ccc(Cl)cc2)s/c1=N\c1cccc(C(=O)O)c1`, the IC50 at Phosphodiesterase 1 worked out at 16.38 µM; in data set [1], 7.27 µM; in data set [2], 21.3 µM; in data set [3] it was 140 nM; in data set [4] it was 7.47 µM.

For the compound `Cn1nc(-c2ccc(Cl)c(S(N)(=O)=O)c2)s/c1=N\C1CCCCC1`, the IC50 came to 5.9 µM in data set [2] and 60 nM in data set [3].

Regarding `Cc1nc(N)c2ccc(-c3nn(C)/c(=N/C4CCCCC4)s3)cc2n1`, the IC50 was determined as 92.3 µM in data set [2] and 3.9 nM in data set [3].

As to `CN(C)CCNC(=O)c1ccc(-c2nn(C)/c(=N/C3CCCCC3)s2)cc1`, the values for the IC50 in data set [2] and in data set [3] were 33.3 µM and 60 nM, respectively. This compound registered a solubility in data set [5] of 83 µg/mL (≈ 214 µM).

On to `Cn1nc(-c2ccc(Cl)cc2)s/c1=N\c1cccc(-c2noc(O)n2)c1`, for which the IC50 against Phosphodiesterase 1 was 3.56 µM; in data set [1], 7.56 µM; in data set [2] it was 5.63 µM; in data set [3] it was 440 nM; in data set [4], 1.89 µM.

In data set [2], `Cn1nc(-c2cccc(C(=O)O)c2)s/c1=N\C1CCCCC1` had an IC50 of 22.3 µM.

As for `Cn1nc(-c2ccccc2Cl)s/c1=N\C1CCCCC1`, the IC50 in data set [2] was found to be 40 µM.

Take `Cn1nc(-c2ccc(Cl)cc2)s/c1=N\c1cccc(CC(=O)O)c1`: the IC50 against Phosphodiesterase 1 was 40.34 µM; in data set [1], 20.2 µM; in data set [2] it was 23 µM; in data set [3], 2130 nM; in data set [4], 8.57 µM.

Turning to `Cn1nc(-c2ccc(Cl)cc2)s/c1=N\C1(CO)CCCC1`, the IC50 in data set [2] is greater than 101 µM; in data set [3], 4000 nM.

For the compound `Cn1nc(-c2ccc(Cl)cc2)s/c1=N\c1ccc(O)cc1`, the IC50 against Phosphodiesterase 1 was greater than 101 µM; in data set [1], greater than 101 µM; in data set [2] it was 13 µM; in data set [3] it was 1700 nM; in data set [4], 101 µM.

As for `Cn1nc(-c2ccccc2O)s/c1=N\C1CCCCC1`, the values for the IC50 in data set [2] and in data set [3] were 71 µM and 6400 nM, respectively.

Turning to `Cn1nc(-c2ccc(N)cc2)s/c1=N\C1CCCCC1`, the IC50 in data set [2] came out at 25.7 µM; in data set [3] it was 560 nM.

Turning to `COC(=O)c1ccc(-c2nn(C)/c(=N/C3CCCCC3)s2)cc1`, in data set [2], the IC50 was 95.5 µM.

For the compound `Cn1nc(-c2ccc(Cl)cc2)s/c1=N\c1ccc(F)cc1`, the IC50 is 85.68 µM against Phosphodiesterase 1; 101 µM in data set [1]; greater than 101 µM in data set [2]; 2200 nM in data set [3]; greater than 101 µM in data set [4].

With `CC(=O)Nc1ccc(-c2nn(C)/c(=N/C3CCCCC3)s2)cc1`, the IC50 in data set [2] was found to be 34.2 µM.

On to `Cn1nc(-c2ccc(C(N)=O)c(N)c2)s/c1=N\C1CCCCC1`, for which the IC50 stood at 26 µM in data set [2] and 80 nM in data set [3].

As for `Cn1nc(-c2ccc(Cl)cc2)s/c1=N\C(C)(C)CO`, the IC50 is 37 µM in data set [2] and 1900 nM in data set [3].

As to `Cc1cccc(C(=O)O)c1/N=c1\sc(-c2ccc(Cl)cc2)nn1C`, the IC50 at Phosphodiesterase 1 is 14.06 µM; in data set [1], 23.6 µM; in data set [2] it was 20.5 µM; in data set [3], 1370 nM; in data set [4] it was 20.5 µM.

Regarding `Cn1nc(-c2ccc(Cl)cc2)s/c1=N\c1cccc(C#N)c1`, the IC50 against Phosphodiesterase 1 was greater than 101 µM; in data set [1], greater than 101 µM; in data set [2], 36.3 µM; in data set [3], 5700 nM; in data set [4], 47.2 µM.

Take `Cn1nc(-c2ccc3c(N)ncnc3c2)s/c1=N\C1CCCCC1`: the IC50 was greater than 101 µM in data set [2] and 20 nM in data set [3].

Turning to `Cn1nc(-c2ccc(Cl)cc2)s/c1=N\c1cccc(F)c1`, the IC50 against Phosphodiesterase 1 is greater than 101 µM; in data set [1], greater than 101 µM; in data set [2], greater than 101 µM; in data set [3], 6600 nM; in data set [4], greater than 101 µM.

For `CCC(CC)/N=c1\sc(-c2ccc(Cl)cc2)nn1C`, the IC50 in data set [2] was greater than 101 µM; in data set [3] it was 5600 nM.

For `Cn1nc(-c2ccc(Cl)cc2)s/c1=N\C1CCC(N)CC1` (stereo unspecified), the IC50 is greater than 101 µM in data set [2] and 5900 nM in data set [3].

Turning to `Cn1nc(-c2ccc(Cl)cc2)s/c1=N\C1CCCCCCC1`, the 50% inhibitory concentration (IC50) was greater than 101 µM in data set [2] and 1650 nM in data set [3].

`Cn1nc(-c2ccc(C(=O)O)cc2)s/c1=N\C1CCCCC1` had an IC50 in data set [2] of 32.2 µM.

With `COc1c(O)cc(-c2nn(C)/c(=N/C3CCCCC3)s2)cc1O`, the IC50 in data set [2] amounted to 11.9 µM; in data set [3], 60 nM.

In turn, `Cn1nc(-c2cccc(O)c2)s/c1=N\C1CCCCC1` gave an IC50 in data set [2] of 22.2 µM.

Take `CC(C)/N=c1\sc(-c2ccc(Cl)cc2)nn1C`: the values for the IC50 in data set [2] and in data set [3] were 17 µM and 3900 nM, respectively.

(Values after ChEMBL document CHEMBL1137197, “Discovery of thiadiazoles as a novel structural class of potent and selective PDE7 inhibitors. Part 1: design, synthesis and structure-activity relationship studies” (Bioorg Med Chem Lett, 2004).)
